# System: 4T1.2-Luc TNBC tumors
# Test: 4T1.2-Luc orthotopic TNBC mouse model, unilateral tumor: tumor volume, tumor weight and body weight
# Type: in vivo, female BALB/c mice
# Details: trehalose IP
# From the text: The model was created by orthotopically injecting 4T1.2-Luc cells in the 4th mammary fat pad of Balb/c mice, with 1×10^5 cells per mouse. The cell line was developed by Dr. Cheryl Jorcyk and it expresses luciferase gene which serves as a luminescent indicator of gene expression or tumorigenesis, making the tumor cell traceable in vivo. Treatment started after the formation of palpable tumors and was detected by in vivo BLI (IVIS, Perkin Elmer) followed by randomization of the animals per group. For evaluating the effect of the peptides on this model, we carried out two separate studies. The first pilot study involved a set of 4 mice per group with bilateral mammary tumors, which received six IP administration of PBS, 9S1R-NulloPT drug at 50 mg/kg, 100 mg/Kg body weight or Trehalose, over a period of 2 weeks. The present study includes a set of 7–9 mice per group with unilateral tumors including the same groups as previous, but received a total of eight injections per mouse over a period of 2 weeks. […]
# Mice were anesthetized by isoflurane followed by measurement of the tumor length and width using a manual Vernier caliper. This was performed before every drug administration and the tumor volume was calculated using the formula (length × width^2)/2. Body weights were also measured before every dose of the drug.
smiles,measurement,value
OC[C@H]1O[C@H](O[C@H]2O[C@H](CO)[C@@H](O)[C@H](O)[C@H]2O)[C@H](O)[C@@H](O)[C@@H]1O [Trehalose],"post mortem tumor size, trehalose only group",no significant change

# Reference: PMC10350184, “Nullomer peptide increases immune cell infiltration and reduces tumor metabolism in triple negative breast cancer mouse model” (Research Square, 2023)
